From ChEMBL document CHEMBL1146065, “Structure-based optimization of azole antifungal agents by CoMFA, CoMSIA, and molecular docking” (2006)
≈ marks a conversion by molar mass, not a printed value.

Experiments:
Type in all cases: functional
Aspergillus fumigatus = test: Antifungal activity against Aspergillus fumigatus
Candida tropicalis = test: Antifungal activity against Candida tropicalis
Sporothrix schenckii = test: Antifungal activity against Sporothrix schenckii
Candida albicans = test: Antifungal activity against Candida albicans
Cryptococcus neoformans = test: Antifungal activity against Cryptococcus neoformans
Fonsecaea pedrosoi = test: Antifungal activity against Fonsecaea pedrosoi
Candida parapsilosis = test: Antifungal activity against Candida parapsilosis; conditions: Lodderomyces parapsilosis
Trichophyton rubrum = test: Antifungal activity against Trichophyton rubrum

Row | MIC80 (Aspergillus fumigatus) [µg/mL] | MIC80 (Candida tropicalis) [µg/mL] | MIC80 (Sporothrix schenckii) [µg/mL] | MIC80 (Candida albicans) | MIC80 (Cryptococcus neoformans) [µg/mL] | MIC80 (Fonsecaea pedrosoi) [µg/mL] | MIC80 (Candida parapsilosis) [µg/mL] | MIC80 (Trichophyton rubrum) [µg/mL] | Compound
1 | 16 (≈ 29.3 µM) | 0.125 (≈ 0.229 µM) | 64 (≈ 117 µM) | 0.004 µg/mL | 1 (≈ 1.83 µM) | 1.25 (≈ 2.29 µM) | 0.008 (≈ 0.0147 µM) | 0.5 (≈ 0.916 µM) | Cc1cccc(Cn2ncn(-c3ccc(CN(C)CC(O)(Cn4cncn4)c4ccc(F)cc4F)cc3)c2=O)c1 (stereo not drawn)
2 | 1 (≈ 1.42 µM) | 0.125 (≈ 0.177 µM) | – | 0.125 µg/mL | 2 (≈ 2.83 µM) | 0.5 (≈ 0.709 µM) | 0.25 (≈ 0.354 µM) | 1 (≈ 1.42 µM) | CCC(C)n1ncn(-c2ccc(N3CCN(c4ccc(OCC5COC(Cn6cncn6)(c6ccc(Cl)cc6Cl)O5)cc4)CC3)cc2)c1=O (stereo not drawn) [ITRACONAZOLE]
3 | 16 (≈ 25.5 µM) | 0.125 (≈ 0.199 µM) | 64 (≈ 102 µM) | 0.004 µg/mL | 0.125 (≈ 0.199 µM) | 0.25 (≈ 0.398 µM) | 0.008 (≈ 0.0127 µM) | 1 (≈ 1.59 µM) | CN(Cc1ccc(-n2cnn(Cc3ccc(F)cc3Br)c2=O)cc1)CC(O)(Cn1cncn1)c1ccc(F)cc1F (stereo not drawn)
4 | 64 (≈ 150 µM) | 0.25 (≈ 0.586 µM) | 64 (≈ 150 µM) | 0.032 µg/mL | 0.5 (≈ 1.17 µM) | 1 (≈ 2.35 µM) | 4 (≈ 9.38 µM) | 8 (≈ 18.8 µM) | CN(Cc1cccc(C(F)(F)F)c1)CC(O)(Cn1cncn1)c1ccc(F)cc1F (stereo not drawn)
5 | 8 (≈ 13.6 µM) | 1 (≈ 1.7 µM) | 32 (≈ 54.5 µM) | 0.031 µg/mL | 2 (≈ 3.4 µM) | 0.25 (≈ 0.425 µM) | 4 (≈ 6.81 µM) | 0.5 (≈ 0.851 µM) | CN(Cc1ccc(-n2cnn(Cc3ccc(C(C)(C)C)cc3)c2=O)cc1)CC(O)(Cn1cncn1)c1ccc(F)cc1F (stereo not drawn)
6 | 16 (≈ 25.1 µM) | 0.0625 (≈ 0.0979 µM) | 64 (≈ 100 µM) | 0.002 µg/mL | 0.25 (≈ 0.392 µM) | 0.0625 (≈ 0.0979 µM) | 1 (≈ 1.57 µM) | 0.25 (≈ 0.392 µM) | CN(Cc1ccc(-n2cnn(CC(=O)c3ccc(Br)cc3)c2=O)cc1)CC(O)(Cn1cncn1)c1ccc(F)cc1F (stereo not drawn)
7 | 8 (≈ 13 µM) | 0.0312 (≈ 0.0508 µM) | 32 (≈ 52 µM) | 0.002 µg/mL | 0.016 (≈ 0.026 µM) | 0.125 (≈ 0.203 µM) | 0.008 (≈ 0.013 µM) | 0.25 (≈ 0.406 µM) | CN(Cc1ccc(-n2cnn(Cc3ccc(OC(F)(F)F)cc3)c2=O)cc1)CC(O)(Cn1cncn1)c1ccc(F)cc1F (stereo not drawn)
8 | 64 (≈ 104 µM) | 0.5 (≈ 0.812 µM) | 64 (≈ 104 µM) | 0.0625 µg/mL | 32 (≈ 52 µM) | 2 (≈ 3.25 µM) | 2 (≈ 3.25 µM) | 64 (≈ 104 µM) | CN(Cc1ccc(-n2cnn(CC(=O)c3ccc(C(C)(C)C)cc3)c2=O)cc1)CC(O)(Cn1cncn1)c1ccc(F)cc1F (stereo not drawn)
9 | 64 (≈ 114 µM) | 0.0625 (≈ 0.112 µM) | 64 (≈ 114 µM) | 0.016 µg/mL | 8 (≈ 14.3 µM) | 1 (≈ 1.79 µM) | 0.008 (≈ 0.0143 µM) | 8 (≈ 14.3 µM) | CN(Cc1ccc(-n2cnn(CC(=O)c3ccccc3)c2=O)cc1)CC(O)(Cn1cncn1)c1ccc(F)cc1F (stereo not drawn)
10 | 64 (≈ 108 µM) | 0.0625 (≈ 0.105 µM) | 64 (≈ 108 µM) | 0.004 µg/mL | 2 (≈ 3.37 µM) | 0.25 (≈ 0.421 µM) | 0.03 (≈ 0.0505 µM) | 4 (≈ 6.73 µM) | CN(Cc1ccc(-n2cnn(CC(=O)c3ccc(Cl)cc3)c2=O)cc1)CC(O)(Cn1cncn1)c1ccc(F)cc1F (stereo not drawn)
11 | 32 (≈ 52.6 µM) | 0.0625 (≈ 0.103 µM) | 64 (≈ 105 µM) | 0.125 µg/mL | 64 (≈ 105 µM) | 1 (≈ 1.64 µM) | 0.5 (≈ 0.822 µM) | 64 (≈ 105 µM) | Cc1ccc(C(=O)Cn2ncn(-c3ccc(CN(C)CC(O)(Cn4cncn4)c4ccc(F)cc4F)cc3)c2=O)c(Cl)c1 (stereo not drawn)
12 | 32 (≈ 53.2 µM) | 0.125 (≈ 0.208 µM) | 64 (≈ 106 µM) | 0.004 µg/mL | 1 (≈ 1.66 µM) | 0.125 (≈ 0.208 µM) | 0.06 (≈ 0.0997 µM) | 1 (≈ 1.66 µM) | CC(C)c1ccc(C(=O)Cn2ncn(-c3ccc(CN(C)CC(O)(Cn4cncn4)c4ccc(F)cc4F)cc3)c2=O)cc1 (stereo not drawn)
13 | 4 (≈ 6.36 µM) | 0.0625 (≈ 0.0995 µM) | 64 (≈ 102 µM) | 0.002 µg/mL | 0.125 (≈ 0.199 µM) | 0.125 (≈ 0.199 µM) | 0.008 (≈ 0.0127 µM) | 0.5 (≈ 0.796 µM) | CN(Cc1ccc(-n2cnn(Cc3ccc(Br)cc3F)c2=O)cc1)CC(O)(Cn1cncn1)c1ccc(F)cc1F (stereo not drawn)
14 | 32 (≈ 58.7 µM) | 0.5 (≈ 0.916 µM) | 64 (≈ 117 µM) | 0.002 µg/mL | 1 (≈ 1.83 µM) | 0.25 (≈ 0.458 µM) | 0.125 (≈ 0.229 µM) | 1 (≈ 1.83 µM) | Cc1ccc(Cn2ncn(-c3ccc(CN(C)CC(O)(Cn4cncn4)c4ccc(F)cc4F)cc3)c2=O)cc1 (stereo not drawn)
15 | 8 (≈ 13.6 µM) | 0.0625 (≈ 0.106 µM) | 64 (≈ 109 µM) | 0.002 µg/mL | 0.5 (≈ 0.851 µM) | 0.0625 (≈ 0.106 µM) | 0.125 (≈ 0.213 µM) | 0.5 (≈ 0.851 µM) | Cc1ccc(C(=O)Cn2ncn(-c3ccc(CN(C)CC(O)(Cn4cncn4)c4ccc(F)cc4F)cc3)c2=O)c(C)c1 (stereo not drawn)
16 | 8 (≈ 14.1 µM) | 0.5 (≈ 0.883 µM) | 32 (≈ 56.5 µM) | 0.016 µg/mL | 0.5 (≈ 0.883 µM) | 0.125 (≈ 0.221 µM) | 4 (≈ 7.07 µM) | 0.5 (≈ 0.883 µM) | CN(Cc1ccc(-n2cnn(Cc3cccc(Cl)c3)c2=O)cc1)CC(O)(Cn1cncn1)c1ccc(F)cc1F (stereo not drawn)
17 | – | – | – | 0.0612 µM | – | – | – | – | OC(CN1CCN(Cc2ccc(Br)cc2F)CC1)(Cn1cncn1)c1ccc(F)cc1F (stereo not drawn)
